# Assay results from patent US20230159532A1, “PARATHYROID HORMONE (PTH) RECEPTOR ANTAGONISTS AND USES THEREOF” (Crinetics Pharmaceuticals, Inc., priority 2021, published 2023).
# Target: T1, human PTHR1 receptor (Homo sapiens, UniProt Q03431)
# T1 construct: purchased Eurofins HTS030M
# T1 sequence (Q03431 27-593): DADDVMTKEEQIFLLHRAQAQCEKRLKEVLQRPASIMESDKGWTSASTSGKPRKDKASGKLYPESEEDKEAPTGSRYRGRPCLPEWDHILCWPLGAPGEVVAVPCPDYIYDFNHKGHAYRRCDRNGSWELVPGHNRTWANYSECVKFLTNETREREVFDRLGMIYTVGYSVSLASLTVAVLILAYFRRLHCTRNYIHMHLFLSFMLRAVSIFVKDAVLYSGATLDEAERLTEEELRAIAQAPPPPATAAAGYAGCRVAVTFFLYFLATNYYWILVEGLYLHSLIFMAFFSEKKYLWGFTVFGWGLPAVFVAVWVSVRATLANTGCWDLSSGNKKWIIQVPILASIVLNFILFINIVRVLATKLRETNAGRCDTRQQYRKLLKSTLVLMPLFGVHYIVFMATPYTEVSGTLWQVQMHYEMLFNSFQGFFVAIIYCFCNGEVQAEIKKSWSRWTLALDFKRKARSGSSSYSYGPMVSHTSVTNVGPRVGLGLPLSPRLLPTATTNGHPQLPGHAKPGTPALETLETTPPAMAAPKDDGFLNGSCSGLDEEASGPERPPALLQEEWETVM
# Assay: Competitive antagonist binding assay for hPTH-R1 (radioactive competition binding, SPA beads)
# Settings: human PTHR1 membranes, [125I]-[Nle8,18,Tyr34]-PTH(1-34) 0.2 nM, 90 minutes at room temperature; read-out: hPTHR1 Ki
# Method in brief: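 Displacement of 0.2 nM radioiodinated [Nle8,18,Tyr34]-PTH(1-34) from membrane-bound human PTHR1 measured by scintillation proximity after 90 min at room temperature. Compounds typically 0-10,000 nM final, pH 7.4 HEPES/Mg/Ca buffer with BSA and detergent. Ki calculated from competition data.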
row,Structure (SMILES),Ki [nM]
1,"CCN1C(=O)N(c2c(F)cc(NCC3CNC3)cc2F)c2cc(C#N)ccc2-c2cc(Cl)cnc21 [1-145, 10-(4-{[(azetidin-3-yl)methyl]amino}-2,6-difluorophenyl)-4-chloro-8-ethyl-9-oxo-6,8,10-triazatricyclo[9.4.0.0^2,7]pentadeca-1(11),2(7),3,5,12,14-hexaene-13-carbonitrile]",< 100
2,"CCN1C(=O)N(c2c(F)cc(NCCN[C@@H](CO)C(=O)O)cc2F)c2cc(C#N)ccc2-c2cc(Cl)cnc21 [1-210, (2S)-2-({2-[(4-{4-chloro-13-cyano-8-ethyl-9-oxo-6,8,10-triazatricyclo[9.4.0.0^2,7]pentadeca-1(11),2(7),3,5,12,14-hexaen-10-yl}-3,5-difluorophenyl)amino]ethyl}amino)-3-hydroxypropanoic acid]",< 100
3,"CNCCNc1cc(F)c(N2C(=O)N(C(C)C)c3ncc(Cl)cc3-c3ccc(C#N)cc32)c(F)c1 [1-91, 4-chloro-10-(2,6-difluoro-4-{[2-(methylamino)ethyl]amino}phenyl)-9-oxo-8-(propan-2-yl)-6,8,10-triazatricyclo[9.4.0.0^2,7]pentadeca-1(11),2(7),3,5,12,14-hexaene-13-carbonitrile]",< 100
4,"CCN1C(=O)N(c2c(F)cc(N3CC[C@H](N)C3)cc2F)c2cc(C#N)ccc2-c2cc(Cl)cnc21 [1-241, 10-{4-[(3 S)-3-aminopyrrolidin-1-yl]-2,6-difluorophenyl}-4-chloro-8-ethyl-9-oxo-6,8,10-triazatricyclo[9.4.0.0^2,7]pentadeca-1(11),2(7),3,5,12,14-hexaene-13-carbonitrile]",< 100
5,"CCN1C(=O)N(c2c(F)cc(NCCN[C@H](C)C(=O)O)cc2F)c2cc(C#N)ccc2-c2cc(Cl)cnc21 [1-236, (2R)-2-({2-[(4-{4-chloro-13-cyano-8-ethyl-9-oxo-6,8,10-triazatricyclo[9.4.0.0^2,7]pentadeca-1(11),2(7),3,5,12,14-hexaen-10-yl}-3,5-difluorophenyl)amino]ethyl}amino)propanoic acid]",< 100
6,"CCN1C(=O)N(c2c(F)cc(NCCNCCCC(=O)O)cc2F)c2cc(C#N)cc(F)c2-c2cc(F)cnc21 [1-104, 4-({2-[(4-{13-cyano-8-ethyl-4,15-difluoro-9-oxo-6,8,10-triazatricyclo[9.4.0.0^2,7]pentadeca-1(11),2(7),3,5,12,14-hexaen-10-yl}-3,5-difluorophenyl)amino]ethyl}amino)butanoic acid]",< 100
7,"CN1C(=O)N(c2c(F)cc(NCCN[C@H]3C[C@H](O)C3)cc2F)c2cc(C#N)ccc2-c2cc(Cl)cnc21 [1-198, 4-chloro-10-{2,6-difluoro-4-[(2-{[(1r,3r)-3-hydroxycyclobutyl]amino}ethyl)amino]phenyl}-8-methyl-9-oxo-6,8,10-triazatricyclo[9.4.0.0^2,7]pentadeca-1(11),2(7),3,5,12,14-hexaene-13-carbonitrile]",< 100
8,"CCN1C(=O)N(c2c(F)cc(NCCNCCO)cc2F)c2cc(Cl)cc(C#N)c2-c2cc(F)cnc21 [1-134, 13-chloro-10-[2,6-difluoro-4-({2-[(2-hydroxyethyl)amino]ethyl}amino)phenyl]-8-ethyl-4-fluoro-9-oxo-6,8,10-triazatricyclo[9.4.0.0^2,7]pentadeca-1(11),2(7),3,5,12,14-hexaene-15-carbonitrile]",< 100
9,"CCCN1C(=O)N(c2c(F)cc(NCCNC)cc2F)c2cc(Cl)ccc2-c2cc(Cl)cnc21 [1-40, 4,13-dichloro-10-(2,6-difluoro-4-{[2-(methylamino)ethyl]amino}phenyl)-8-propyl-6,8,10-triazatricyclo[9.4.0.0^2,7]pentadeca-1(11),2(7),3,5,12,14-hexaen-9-one]",< 100
10,"CCCN1C(=O)N(c2c(F)cc(NCCNC)cc2F)c2cc(C#N)ccc2-c2cc(Cl)cnc21 [1-119, 4-chloro-10-(2,6-difluoro-4-{[2-(methylamino)ethyl]amino}phenyl)-9-oxo-8-propyl-6,8,10-triazatricyclo[9.4.0.0^2,7]pentadeca-1(11),2(7),3,5,12,14-hexaene-13-carbonitrile]",< 100
11,"CCN1C(=O)N(c2c(F)cc(NCCN[C@H]3C[C@H](O)C3)cc2F)c2cc(C#N)ccc2-c2cc(Cl)cnc21 [1-187, 4-chloro-10-{2,6-difluoro-4-[(2-{[(1r,3r)-3-hydroxycyclobutyl]amino}ethyl)amino]phenyl}-8-ethyl-9-oxo-6,8,10-triazatricyclo[9.4.0.0^2,7]pentadeca-1(11),2(7),3,5,12,14-hexaene-13-carbonitrile]",< 100
12,"CCN1C(=O)N(c2ccc(NCCNC)cc2)c2cc(Cl)ccc2-c2cc(C)cnc21 [2-5, 13-chloro-8-ethyl-4-methyl-10-(4-{[2-(methylamino)ethyl]amino}phenyl)-6,8,10-triazatricyclo[9.4.0.0^2,7]pentadeca-1(11),2(7),3,5,12,14-hexaen-9-one]",< 100
13,"CCN1C(=O)N(c2c(F)cc(NCCNCCC(=O)O)cc2F)c2cc(C#N)ccc2-c2cc(Cl)cnc21 [1-178, 3-({2-[(4-{4-chloro-13-cyano-8-ethyl-9-oxo-6,8,10-triazatricyclo[9.4.0.0^2,7]pentadeca-1(11),2(7),3,5,12,14-hexaen-10-yl}-3,5-difluorophenyl)amino]ethyl}amino)propanoic acid]",< 100
14,"CCN1C(=O)N(c2c(F)cc(NCCNC)cc2F)c2cc(Cl)cc(C)c2-c2cc(F)cnc21 [1-32, 13-chloro-10-(2,6-difluoro-4-{[2-(methylamino)ethyl]amino}phenyl)-8-ethyl-4-fluoro-15-methyl-6,8,10-triazatricyclo[9.4.0.0^2,7]pentadeca-1(11),2(7),3,5,12,14-hexaen-9-one]",< 100
15,"CCN1C(=O)N(c2c(F)cc(NCCNCCF)cc2F)c2cc(Cl)ccc2-c2cc(Cl)cnc21 [1-59, 4,13-dichloro-10-[2,6-difluoro-4-({2-[(2-fluoroethyl)amino]ethyl}amino)phenyl]-8-ethyl-6,8,10-triazatricyclo[9.4.0.0^2,7]pentadeca-1(11),2(7),3,5,12,14-hexaen-9-one]",< 100
16,"Cc1cc(Cl)cc2c1-c1cc(F)cnc1N(C(C)C)C(=O)N2c1c(F)cc(NCCNCCO)cc1F [1-79, 13-chloro-10-[2,6-difluoro-4-({2-[(2-hydroxyethyl)amino]ethyl}amino)phenyl]-4-fluoro-15-methyl-8-(propan-2-yl)-6,8,10-triazatricyclo[9.4.0.0^2,7]pentadeca-1(11),2(7),3,5,12,14-hexaen-9-one]",< 100
17,"CCN1C(=O)N(c2c(F)cc(NCCNC)cc2F)c2cc(Cl)c(C)cc2-c2cccnc21 [3-3, 13-chloro-10-(2,6-difluoro-4-{[2-(methylamino)ethyl]amino}phenyl)-8-ethyl-14-methyl-6,8,10-triazatricyclo[9.4.0.0^2,7]pentadeca-1(11),2(7),3,5,12,14-hexaen-9-one]",< 100
18,"CCN1C(=O)N(c2c(F)cc(NCCN[C@@H]3CC[C@H]3O)cc2F)c2cc(C#N)ccc2-c2cc(C(F)(F)F)cnc21 [1-196, 10-{2,6-difluoro-4-[(2-{[(1R,2R)-2-hydroxycyclobutyl]amino}ethyl)amino]phenyl}-8-ethyl-9-oxo-4-(trifluoromethyl)-6,8,10-triazatricyclo[9.4.0.0^2,7]pentadeca-1(11),2(7),3,5,12,14-hexaene-13-carbonitrile]",< 100
19,"CCN1C(=O)N(c2c(F)cc(N3CC(NCCO)C3)cc2F)c2cc(C#N)ccc2-c2cc(F)cnc21 [1-124, 10-(2,6-difluoro-4-{3-[(2-hydroxyethyl)amino]azetidin-1-yl}phenyl)-8-ethyl-4-fluoro-9-oxo-6,8,10-triazatricyclo[9.4.0.0^2,7]pentadeca-1(11),2(7),3,5,12,14-hexaene-13-carbonitrile]",100 to 1000
20,"CCN1C(=O)N(c2c(F)cc(N[C@@H](C)CNC)cc2F)c2cc(C#N)ccc2-c2cc(Cl)cnc21 [1-165, 4-chloro-10-(2,6-difluoro-4-{[(2S)-1-(methylamino)propan-2-yl]amino}phenyl)-8-ethyl-9-oxo-6,8,10-triazatricyclo[9.4.0.0^2,7]pentadeca-1(11),2(7),3,5,12,14-hexaene-13-carbonitrile]",< 100
21,"CN1C(=O)N(c2c(F)cc(NCCN)cc2F)c2cc(Cl)ccc2-c2cc(Cl)cnc21 [1-33, 10-{4-[(2-aminoethyl)amino]-2,6-difluorophenyl}-4,13-dichloro-8-methyl-6,8,10-triazatricyclo[9.4.0.0^2,7]pentadeca-1(11),2(7),3,5,12,14-hexaen-9-one]",< 100
22,"CN1C(=O)N(c2c(F)cc(NCCNCCCO)cc2F)c2cc(C#N)ccc2-c2cc(Cl)cnc21 [1-197, 4-chloro-10-[2,6-difluoro-4-({2-[(3-hydroxypropyl)amino]ethyl}amino)phenyl]-8-methyl-9-oxo-6,8,10-triazatricyclo[9.4.0.0^2,7]pentadeca-1(11),2(7),3,5,12,14-hexaene-13-carbonitrile]",< 100
